Cytotoxicity data for 39 compounds are collected here from ChEMBL document CHEMBL3507680, “University of Dundee, Gates Library screen for HepG2 cell viability”.

The data set can be described thus: Human HepG2 cell viability assay in 384 well format. It is filed as toxicity, cell-based. Also noted: dose 125 nL, time 70.5 hour; concentration not given beside the values. The conditions noted are these: HepG2 cells, read-out: Inhibition.
On to `F[C@@H]1CN(Cc2ccccc2)C[C@@H]1OCc1nc2ccccc2[nH]1`, for which the cytotoxicity at 70.5 h turned out to be 0.621%.

On to `Cc1nnc([C@@H]2CCO[C@@H]3CCN(C(=O)Cc4ccsc4)C[C@@H]32)o1`, for which the cytotoxicity at 70.5 h was -5.87%.

As for `NC(=O)[C@@H]1Cc2ccccc2N1C(=O)C1CC(c2ccccc2)=NO1` (some centres undefined), the cytotoxicity at 70.5 h was determined as 6.72%.

Turning to `CSCCCN1C[C@H]2CC[C@@H]1CN(Cc1[nH]cnc1C)C2`, the cytotoxicity at 70.5 h is -2.71%.

With `CC(NC(=O)c1coc(COc2cccc(F)c2)n1)c1nnc(N)s1` (centres undefined), the cytotoxicity at 70.5 h is -10.7%.

`Cc1ccc(N2C[C@H]3CCC[C@@H](CN4CCOCC4)[C@H]3C2)nn1`: the cytotoxicity at 70.5 h was -1.56%.

Take `CO[C@H]1CN(C(C)C)C[C@@H]1NC(=O)c1cc(-c2ccccc2O)n[nH]1`: the cytotoxicity at 70.5 h was -1.03%.

As for `COCCN1CCOCC2(CCCN(Cc3ccc(C)o3)C2)C1` (centres undefined), the cytotoxicity at 70.5 h is 7.21%.

As to `CC(=O)N1CCCC(Cc2cnc(-c3c(C)nn(C)c3C)cn2)C1` (centres undefined), the cytotoxicity at 70.5 h was -7.67%.

On to `CCCC1(CO)CCCN(C(=O)CCCn2nc(C)cc2C)C1` (centres undefined), for which the cytotoxicity at 70.5 h was -0.556%.

For `CS(=O)(=O)N1CCN(C(=O)c2cncs2)CC(C(N)=O)C1` (centres undefined), the cytotoxicity at 70.5 h was -5.12%.

With `CCNC(=O)NCC1(CN2CCOCC2)CCCCC1`, the cytotoxicity at 70.5 h worked out at 0.842%.

As to `CC(C)(CNc1ccc(S(=O)(=O)C(F)F)cc1)N1CCOCC1`, the cytotoxicity at 70.5 h was 18.8%.

On to `Cc1cccc(C2(C(=O)NC(C)Cn3ccnc3)CC2)c1` (centres undefined), for which the cytotoxicity at 70.5 h is -8.86%.

`Cc1c[nH]c(CN2CCC3(CCCN(Cc4ccc(F)c(F)c4)C3)C2)n1` (centres undefined): the cytotoxicity at 70.5 h turned out to be 0.269%.

For the compound `Cn1nc(C2CCCN(C(=O)CO)C2)cc1O` (centres undefined), the cytotoxicity at 70.5 h came to 19.8%.

For the compound `CC(Cc1ccco1)NC(=O)CCn1cccn1` (centres undefined), the cytotoxicity at 70.5 h was -14.7%.

Take `Cc1cccc(N2CCC3(CCCN3Cc3c(C)nn(C)c3C)CC2)n1`: the cytotoxicity at 70.5 h was -3.1%.

In the case of `CCc1cc(C)c(C(=O)N2CCCC2CC(=O)c2cnn(C)c2)o1` (centres undefined), the cytotoxicity at 70.5 h turned out to be 6.36%.

With `Cc1cccc(C(C)(C)CNC(=O)CCSc2nnnn2C)c1`, the cytotoxicity at 70.5 h was -2.6%.

As for `CCc1nc2n(n1)CC(NCCc1cccs1)CC2` (centres undefined), the cytotoxicity at 70.5 h is 3.55%.

Regarding `COCCOc1ncccc1CNC(=O)N1CCOCC1`, the cytotoxicity at 70.5 h is -7.27%.

As to `Cc1ccc(C(=O)N2CCCC(CNS(=O)(=O)C(C)C)C2)cc1` (centres undefined), the cytotoxicity at 70.5 h was -3.09%.

For `Cn1cncc1CN1CC[C@](C)(O)[C@@H](Oc2cccc(F)c2)C1`, the cytotoxicity at 70.5 h stood at 13.9%.

On to `O=C(c1cccnc1N1CCOC(c2ccc(Cl)cc2)C1)N1CCCC1` (centres undefined), for which the cytotoxicity at 70.5 h is -5.24%.

For the compound `C=C(C)CN1CCC(NC(=O)Nc2ccc(F)c(C(N)=O)c2)CC1`, the cytotoxicity at 70.5 h is -6.42%.

In the case of `CC(NC(=O)Nc1nccs1)c1ccncc1` (centres undefined), the cytotoxicity at 70.5 h is -10.5%.

Turning to `CC(CC(=O)N1CCC(c2nnc3n2CCC3)CC1)n1cccc1` (centres undefined), the cytotoxicity at 70.5 h was found to be 10.7%.

Take `CCS(=O)(=O)c1ccccc1N1CCC(NC(=O)C2CC2)CC1`: the cytotoxicity at 70.5 h worked out at 1.87%.

With `Cc1nc(CN(C)C(=O)Nc2cccc(COC(C)C)c2)no1`, the cytotoxicity at 70.5 h is -1.56%.

As for `CN(c1ccccc1)S(=O)(=O)c1cc2c(c(C(=O)O)c1)OCCO2`, the cytotoxicity at 70.5 h is -9.42%.

As for `CCc1c(C(=O)N2CCOC(C)(C)C2)cnn1-c1ccccn1`, the cytotoxicity at 70.5 h is -2.04%.

Turning to `Cn1cc(N2CC3(CCN(CC4CC4)C3)CC2=O)cn1` (centres undefined), the cytotoxicity at 70.5 h was -2.96%.

Turning to `CN1CCOC(CNC(=O)CCCOc2ccccc2F)C1` (centres undefined), the cytotoxicity at 70.5 h is -15.3%.

Regarding `CCc1nc(C2CCCN2Cc2nc(C3CC3)no2)no1` (centres undefined), the cytotoxicity at 70.5 h was -5.95%.

Consider `CCN(CC)Cc1cn2c(n1)CN(C(=O)c1cc(C)on1)CC2`, for which the cytotoxicity at 70.5 h was -13.3%.

On to `CN(c1ccc(CNc2c(Cl)cccc2C#N)cc1)S(C)(=O)=O`, for which the cytotoxicity at 70.5 h is -1.4%.

As for `COc1cccc(-c2cc(NCc3nc(C)cs3)n(C)n2)c1`, the cytotoxicity at 70.5 h is -9.85%.

For the compound `Cc1cnn(CC2CCCCN2C(=O)CCCc2nc(C)no2)c1` (centres undefined), the cytotoxicity at 70.5 h was -5.29%.
